Tests used:
[1] = system: Relapsed/Refractory B-cell malignancies; Relapsed/Refractory AML; assay: Phase 1 study in R/R B-cell malignancies and AML; type: in vivo, human
Method: Study population: Relapsed/Refractory B-cell malignancies; Relapsed/Refractory AML; Dose escalation with standard 3+3 design.
Endpoints: Safety and tolerability, Pharmacokinetics, Biologic correlative studies (BH3 profiling, MCL-1 expression, molecular mutations analysis), Response rates.
Voruciclib single agent dose escalation: 50 mg>100 mg>150 mg>200 mg.
Differentiation syndrome seen in 5 pts (50%) (Increased WBC without increased in blasts, bone pain, pulmonary symptoms; Response to corticosteroids).

[2] = system: MYC (pSer62 and total) in MIA PACA-2 (G12C) cells; assay: Western blot of MYC and pSer62-MYC in MIA PACA-2 cells; type: cell-based; conditions: 4 μM Voruciclib
Method: Voruciclib is an oral inhibitor of CDKs 9, 4, 6, and 1 currently being tested in Phase 1B clinical trials for B-cell malignancies and acute myeloid leukemia. Voruciclib inhibition of CDK9 leads to decreased expression of transcriptional targets of RNA Pol II, such as Mcl1 and MYC. To test whether Voruciclib could be effective in cancers driven by dysregulated KRAS-MYC signaling, ˜20 cancer cell lines with KRAS mutations (G12A, G12C, G12D, G12S, G12V, G13C, G13D, Q61H) were treated in preclinical studies with Voruciclib. MTS and Cell Titer Glo assays were used to monitor growth in vitro. […] To investigate MYC protein stability, MIA PACA-2 (G12C) cells were treated with 4 μM Voruciclib for 5-240 min, followed by SDS-PAGE and Western Blotting analysis with α-MYC and α-pSer62-MYC antibodies. […] A 60% decrease in pSer62 was observed after 5 min that reached 80% by 60 min. […] The ability of Voruciclib to inhibit tumor growth in vivo was also tested in murine xenograft models. KRAS mutant human cancer cells HCT-116 (CRC, KRAS G13D), SW-480 (CRC, KRAS G12V), and H-460 (NSCLC, KRAS Q61H) were injected subcutaneously into SCID mice. Once tumors reached 5-10 mm in diameter, Voruciclib or vehicle were administered orally at 50, 100, or 200 mg/kg OD for 11-14 days. Tumors were measured every 2-3 days, and growth inhibition relative to control was calculated.
FIG. 32—Voruciclib causes rapid inhibition MYC pSer62 phosphorylation and reduces MYC protein levels. Immunoblot analyses of c-MYC, phospho-c-MYC (Ser62), and actin in MIA Paca-2 KRAS G12C mutant PDAC cells. (FIG. 32A) Cells were treated with vehicle control, voruciclib (VOR, 4 μM), or the AZD4573 (AZD, a CDK9 inhibitor, 400 nM) for the indicated times. (FIG. 32B) Cells were treated with various concentrations of voruciclib or AZD4573 for the indicated time. Relative densitometry values are indicated.

[3] = system: NCI-H358 cells; assay: 2D culture dose response; type: cell-based; conditions: Homo sapiens

## CN1CC[C@@H](c2c(O)cc(O)c3c(=O)cc(-c4ccc(C(F)(F)F)cc4Cl)oc23)[C@@H]1CO [Voruciclib, (+)-trans-2-(2-Chloro-4-trifluoromethylphenyl)-5,7-dihydroxy-8-(2-hydroxymethyl-1-methylpyrrolidin-3-yl)-chromen-4-one]
[1]; 24 pts in 3 dose levels, 10 AML and 14 B-cell malignancies
  GI toxicity or neutropenia: No GI toxicity or neutropenia at doses studied
[1]; AML
  patients with differentiation syndrome: 50%
[2]; 5 or 15 min
  decrease in total MYC protein: no decrease in total MYC protein
[2]; 60 min
  reduction in total MYC: 10%
[2]; 240 min
  reduction in total MYC: 50%
[2]; after 5 min
  decrease in pSer62 (MYC): 60%
[2]; by 60 min
  decrease in pSer62 (MYC): 80%
[3]
  IC50: 600 nM

From US20240016781A1, “TREATMENT OF KRAS MUTANT CANCERS” (MEI Pharma, Inc., priority 2020, published 2024)
